PubChem BioAssay (NCI)
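A five-concentration, 48-hour dose response in 96-well plates underlies each endpoint, interpolated linearly between surrounding concentrations. Here, GI50 denotes the concentration required for 50% inhibition of growth. TGI denotes the concentration required for complete inhibition of growth.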

Tests used:
Test in all cases: NCI-60 cell line screen, 48 h
786-0 renal = system: 786-0 renal
A498 renal = system: A498 renal
A549 NSCLC = system: A549 NSCLC
ACHN renal = system: ACHN renal
BT-549 breast = system: BT-549 breast
CAKI-1 renal = system: CAKI-1 renal
CCRF-CEM leukemia = system: CCRF-CEM leukemia
COLO 205 colon = system: COLO 205 colon
DU-145 prostate = system: DU-145 prostate
EKVX NSCLC = system: EKVX NSCLC
HCC-2998 colon = system: HCC-2998 colon
HCT-116 colon = system: HCT-116 colon
HCT-15 colon = system: HCT-15 colon
HL-60(TB) leukemia = system: HL-60(TB) leukemia
HOP-62 NSCLC = system: HOP-62 NSCLC
HOP-92 NSCLC = system: HOP-92 NSCLC
HS 578T breast = system: HS 578T breast
HT29 colon = system: HT29 colon
IGROV1 ovarian = system: IGROV1 ovarian
K-562 leukemia = system: K-562 leukemia
KM12 colon = system: KM12 colon
LOX IMVI melanoma = system: LOX IMVI melanoma
M14 melanoma = system: M14 melanoma
MALME-3M melanoma = system: MALME-3M melanoma
MCF7 breast = system: MCF7 breast
MDA-MB-231 breast = system: MDA-MB-231 breast
MDA-MB-435 = system: MDA-MB-435
NCI-H226 lung = system: NCI-H226 lung
NCI-H23 lung = system: NCI-H23 lung
NCI-H460 lung = system: NCI-H460 lung
NCI-H522 lung = system: NCI-H522 lung
NCI/ADR-RES ovarian = system: NCI/ADR-RES ovarian
OVCAR-3 ovarian = system: OVCAR-3 ovarian
OVCAR-4 ovarian = system: OVCAR-4 ovarian
OVCAR-5 ovarian = system: OVCAR-5 ovarian
OVCAR-8 ovarian = system: OVCAR-8 ovarian
PC-3 prostate = system: PC-3 prostate
RPMI-8226 leukemia = system: RPMI-8226 leukemia
RXF 393 renal = system: RXF 393 renal
SF-268 CNS = system: SF-268 CNS
SF-295 CNS = system: SF-295 CNS
SF-539 CNS = system: SF-539 CNS
SK-MEL-2 melanoma = system: SK-MEL-2 melanoma
SK-MEL-28 melanoma = system: SK-MEL-28 melanoma
SK-MEL-5 melanoma = system: SK-MEL-5 melanoma
SK-OV-3 ovarian = system: SK-OV-3 ovarian
SN12C renal = system: SN12C renal
SNB-19 CNS = system: SNB-19 CNS
SNB-75 CNS = system: SNB-75 CNS
SR leukemia = system: SR leukemia
SW-620 colon = system: SW-620 colon
T-47D breast = system: T-47D breast
TK-10 renal = system: TK-10 renal
U251 CNS = system: U251 CNS
UACC-257 melanoma = system: UACC-257 melanoma
UACC-62 melanoma = system: UACC-62 melanoma
UO-31 renal = system: UO-31 renal

With `COc1ccc(/C=C2\C=C(c3ccccc3)N(CCc3ccccc3)C2=O)cc1OC` the GI50 (786-0 renal) was 2.14 µM, the TGI (786-0 renal) was 5.85 µM and the GI50 (A498 renal) was 2.25 µM. It also gave a TGI (A498 renal) of 5.32 µM, a GI50 (A549 NSCLC) of 5.06 µM and a TGI (A549 NSCLC) of 17.7 µM. It also gave a GI50 (ACHN renal) of 3.53 µM, a TGI (ACHN renal) of 14 µM and a GI50 (BT-549 breast) of 12.4 µM. It also gave a TGI (BT-549 breast) of 49.9 µM, a GI50 (CAKI-1 renal) of 7.53 µM and a TGI (CAKI-1 renal) of over 100 µM. For the same molecule, the GI50 (CCRF-CEM leukemia) was 35.9 µM, the TGI (CCRF-CEM leukemia) was over 100 µM and the GI50 (COLO 205 colon) was 17.3 µM. For the same molecule, the TGI (COLO 205 colon) was over 100 µM, the GI50 (DU-145 prostate) was 13.2 µM and the TGI (DU-145 prostate) was over 100 µM. The GI50 (EKVX NSCLC) was 10.4 µM, the TGI (EKVX NSCLC) was 54 µM and the GI50 (HCC-2998 colon) was 12.9 µM. It also gave a TGI (HCC-2998 colon) of 64.1 µM, a GI50 (HCT-116 colon) of 3.09 µM and a TGI (HCT-116 colon) of 11.6 µM. For the same molecule, the GI50 (HCT-15 colon) was 11.1 µM, the TGI (HCT-15 colon) was over 100 µM and the GI50 (HL-60(TB) leukemia) was 11.7 µM. For the same molecule, the TGI (HL-60(TB) leukemia) was 68.6 µM, the GI50 (HOP-62 NSCLC) was 2.72 µM and the GI50 (HOP-92 NSCLC) was 2.54 µM. For the same molecule, the TGI (HOP-92 NSCLC) was 8.17 µM, the GI50 (HS 578T breast) was 3.66 µM and the TGI (HS 578T breast) was 23.4 µM. It also gave a GI50 (HT29 colon) of 8.92 µM, a TGI (HT29 colon) of 48.9 µM and a GI50 (IGROV1 ovarian) of 4.93 µM. The TGI (IGROV1 ovarian) was 52.1 µM, the GI50 (K-562 leukemia) was 23.9 µM and the TGI (K-562 leukemia) was over 100 µM. The GI50 (KM12 colon) was 22.2 µM, the TGI (KM12 colon) was over 100 µM and the GI50 (LOX IMVI melanoma) was 5.94 µM. For the same molecule, the TGI (LOX IMVI melanoma) was 19 µM, the GI50 (M14 melanoma) was 8.84 µM and the TGI (M14 melanoma) was over 100 µM. The GI50 (MALME-3M melanoma) was 10.2 µM, the TGI (MALME-3M melanoma) was 61.9 µM and the GI50 (MCF7 breast) was 4.18 µM. The TGI (MCF7 breast) was 57.2 µM, the GI50 (MDA-MB-231 breast) was 4.16 µM and the TGI (MDA-MB-231 breast) was 17.9 µM. It also gave a GI50 (MDA-MB-435) of 4.78 µM, a TGI (MDA-MB-435) of over 100 µM and a GI50 (NCI-H226 lung) of 4.6 µM. For the same molecule, the TGI (NCI-H226 lung) was 30.2 µM, the GI50 (NCI-H23 lung) was 17 µM and the TGI (NCI-H23 lung) was over 100 µM. The GI50 (NCI-H460 lung) was 7.34 µM, the TGI (NCI-H460 lung) was 30.7 µM and the GI50 (NCI-H522 lung) was 9.8 µM. It also gave a TGI (NCI-H522 lung) of 36 µM, a GI50 (NCI/ADR-RES ovarian) of 9.03 µM and a TGI (NCI/ADR-RES ovarian) of 68.5 µM. It also gave a GI50 (OVCAR-3 ovarian) of 4.82 µM, a TGI (OVCAR-3 ovarian) of 17.8 µM and a GI50 (OVCAR-4 ovarian) of 3.15 µM. For the same molecule, the TGI (OVCAR-4 ovarian) was 87 µM, the GI50 (OVCAR-5 ovarian) was 6.37 µM and the TGI (OVCAR-5 ovarian) was 73.1 µM. It also gave a GI50 (OVCAR-8 ovarian) of 6.09 µM, a TGI (OVCAR-8 ovarian) of 22.5 µM and a GI50 (PC-3 prostate) of 21.1 µM. It also gave a TGI (PC-3 prostate) of over 100 µM, a GI50 (RPMI-8226 leukemia) of 18.4 µM and a TGI (RPMI-8226 leukemia) of 84.9 µM. It also gave a GI50 (RXF 393 renal) of 3.64 µM, a TGI (RXF 393 renal) of 15.6 µM and a GI50 (SF-268 CNS) of 8.18 µM. The TGI (SF-268 CNS) was 26.5 µM, the GI50 (SF-295 CNS) was 5.95 µM and the TGI (SF-295 CNS) was 24 µM. It also gave a GI50 (SF-539 CNS) of 6.68 µM, a TGI (SF-539 CNS) of 23 µM and a GI50 (SK-MEL-2 melanoma) of 18.5 µM. The TGI (SK-MEL-2 melanoma) was over 100 µM, the GI50 (SK-MEL-28 melanoma) was 6.76 µM and the TGI (SK-MEL-28 melanoma) was 68.1 µM. For the same molecule, the GI50 (SK-MEL-5 melanoma) was 9.29 µM, the TGI (SK-MEL-5 melanoma) was 94.5 µM and the GI50 (SK-OV-3 ovarian) was 4.04 µM. For the same molecule, the TGI (SK-OV-3 ovarian) was 18.8 µM, the GI50 (SN12C renal) was 4.88 µM and the TGI (SN12C renal) was 21.8 µM. For the same molecule, the GI50 (SNB-19 CNS) was 5.08 µM, the TGI (SNB-19 CNS) was 21.5 µM and the GI50 (SNB-75 CNS) was 1.89 µM. For the same molecule, the TGI (SNB-75 CNS) was 6.28 µM, the GI50 (SR leukemia) was 11.1 µM and the TGI (SR leukemia) was 57.7 µM. It also gave a GI50 (SW-620 colon) of 13.6 µM, a TGI (SW-620 colon) of over 100 µM and a GI50 (T-47D breast) of 3.2 µM. The TGI (T-47D breast) was 28.1 µM, the GI50 (TK-10 renal) was 2.28 µM and the TGI (TK-10 renal) was 4.91 µM. The GI50 (U251 CNS) was 3.2 µM, the TGI (U251 CNS) was 9.31 µM and the GI50 (UACC-257 melanoma) was 20.2 µM. It also gave a TGI (UACC-257 melanoma) of 86.8 µM, a GI50 (UACC-62 melanoma) of 6.01 µM and a TGI (UACC-62 melanoma) of 40.9 µM. For the same molecule, the GI50 (UO-31 renal) was 4.35 µM and the TGI (UO-31 renal) was 20.6 µM.
